Results from patent US20240335445A1, “Compounds and Compositions for Treating Fibrosis” (YALE UNIVERSITY, priority 2017, published 2024).

Key:
Type in all cases: biochemical
[1] = biological target: T1, MKP5 (Homo sapiens, UniProt Q9Y6W6); experiment: MKP5 EZReader assay with fluorescent mono-phosphorylated peptides
T1 sequence (Q9Y6W6 1-482): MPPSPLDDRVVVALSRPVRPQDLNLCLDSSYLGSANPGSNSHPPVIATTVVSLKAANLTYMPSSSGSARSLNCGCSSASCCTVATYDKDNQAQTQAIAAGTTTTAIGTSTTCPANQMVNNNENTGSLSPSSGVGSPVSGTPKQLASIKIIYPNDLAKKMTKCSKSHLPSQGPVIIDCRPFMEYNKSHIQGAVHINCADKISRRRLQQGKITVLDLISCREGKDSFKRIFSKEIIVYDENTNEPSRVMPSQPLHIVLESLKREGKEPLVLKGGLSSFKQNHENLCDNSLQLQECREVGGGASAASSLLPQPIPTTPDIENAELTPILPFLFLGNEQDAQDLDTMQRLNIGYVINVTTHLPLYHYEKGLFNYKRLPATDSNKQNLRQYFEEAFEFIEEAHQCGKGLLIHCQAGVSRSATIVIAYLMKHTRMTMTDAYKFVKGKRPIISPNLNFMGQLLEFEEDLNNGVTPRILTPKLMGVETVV

[2] = biological target: T1, MKP5; experiment: MKP-5 Malachite Green phosphate assay with dual phosphorylated peptide pTpY; settings: for inhibition at 12.5 µM: read-out: % inhibition of MKP-5
Source text: In a non-limiting example, the assay comprises contacting a peptide comprising the sequence pThr-Gly-pTyr, the polypeptide comprising and/or consisting of the catalytic domain of MKP-5 (such as but not limited to residues 305-482 of SEQ ID NO:4), or an active fragment thereof, and the test compound. If the test compound is a MKP-5 inhibitor, it will inhibit the dephosphorylation of the peptide comprising the sequence pThr-Gly-pTyr. If the test compound is not a MKP-5 inhibitor, it will not inhibit the dephosphorylation of the peptide comprising the sequence pThr-Gly-pTyr. Dephosphorylation of that peptide can be evaluated qualitatively and/or quantitatively using any methods known in the art, such as but not limited to a Malachite Green Phosphate Assay. This assay provides a fast, reproducible, colorimetric method for measuring inorganic free phosphate in aqueous solutions. The assay method is based on the formation of a complex between malachite green molybdate and free orthophosphate that absorbs at 620-640 nm. This assay is a reliable and suitable means of detecting and quantifying minimal amounts of inorganic free phosphate and is amenable to high-throughput screening applications.
Compounds from the pilot collection consisting of Microsource GenPlus, Microsource Natural Product, NIH Clinical collections, ChemBridge DIVERSet, ChemBridge MicroFormats, Maybridge Diversity, and ChemBridge Amines and Alcohols were screened. Assay conditions were 1.5 μM MKP-5 and 25 μM dual phosphorylated peptide DDE (Nle) (pT) G (pY) VATR (10 μL total volume), incubated for 30 minutes at 37° C. followed by addition of 40 μL Malachite Green reagent. Z′ values are ˜0.7-0.8. Malachite green reagent was made by combining 30 mL 0.045% Malachite Green (Sigma #M-9636) with 20 mL 4.2% ammonium molybdate in 4 M HCl, shaking for at least 30 mins and adding 0.01% Tween 20.

[3] = biological target: T1, MKP5; experiment: MKP5 pNPP assay
[4] = biological target: T1, MKP5; experiment: MKP-5 inhibition, assay not specified; settings: read-out: IC50 against MKP-5
[5] = Kd (M) MKP5 EZREader fluor pT_Y, substrate fluor pT_Y (SEQ ID NO: 2)
[6] = Kd (M) MKP5 EZReader fluor_TpY, substrate fluor_TpY (SEQ ID NO: 1)

Compound	Kd [1, 5]	Kd [1, 6]	Kd [2]	Kd [3]	IC50 [4]	inhibition at 12.5 µM [2]
O=C(O)c1ccc(C2Nc3c(-c4ccccc4)cccc3C3C=CCC32)cc1 (centres unmarked) [YU119284]	> 0.0002 M	> 0.0002 M	> 100 µM	> 200 µM		
CSc1scc2c1-c1nc(SCC(=O)C(C)(C)C)ncc1CC2 [YU032149, 3,3-dimethyl-1-((9-(methylthio)-5,6-dihydrothieno[3,4-h]quinazolin-2-yl)thio)butan-2-one]	1.13e-05 M	1.75e-05 M	6.25 µM	4.23 µM	~12 µM	
O=c1cc2oc3cc(O)c(O)cc3c(-c3ccc([N+](=O)[O-])o3)c-2cc1O [YU109017]	1.56e-05 M	1.03e-05 M	> 100 µM	> 100 µM		
CC(C)(C)C(=O)CSc1ncc2c(n1)-c1ccsc1CC2 [YU252252]						37%
CC(=O)N1Cc2cnc(SCC(=O)C(C)(C)C)nc2-c2ccccc21 [YU241659]						12%
Cc1ccc(C)n1-c1ccc(C(=O)O)c(O)c1 [YU129641]	1.41e-05 M	1.04e-05 M	> 100 µM	> 200 µM		
CC(C)(C)C(=O)CSc1ncc2cnc3ccccc3c2n1 [YU241658]						15%
